Measured values published in the NIST ThermoML archive (doi:10.1021/je800571y).
± gives the expanded uncertainty stated by the source.

Tests used:
[1] = xn = mol fraction of the nth substance listed; settings: 101 kPa, Liquid
[2] = 101 kPa, Liquid

Work on `CC(C)CO` [2-methyl-1-propanol] + CCC(C)=O yielded a mass density ([1]; 293.15 K, x2 = 0) of 801.68 ± 0.98 kg/m3, a viscosity ([1]; 293.15 K, x2 = 0) of 4.037 ± 0.71 mPa·s and a mass density ([1]; 298.15 K, x2 = 0) of 797.8 ± 1 kg/m3. For the same compound, the viscosity ([1]; 298.15 K, x2 = 0) was 3.33 ± 0.59 mPa·s, the mass density ([1]; 303.15 K, x2 = 0) was 794.16 ± 1.1 kg/m3 and the viscosity ([1]; 303.15 K, x2 = 0) was 2.875 ± 0.52 mPa·s. It also gave a mass density ([1]; 308.15 K, x2 = 0) of 790.06 ± 1.1 kg/m3, a viscosity ([1]; 308.15 K, x2 = 0) of 2.421 ± 0.44 mPa·s and a mass density ([1]; 313.15 K, x2 = 0) of 786.7 ± 1.1 kg/m3. It also gave a viscosity ([1]; 313.15 K, x2 = 0) of 1.967 ± 0.36 mPa·s.

Compound `CC(C)O` [propan-2-ol] + CCC(C)=O has a mass density ([1]; 293.15 K, x2 = 0) of 785.45 ± 0.99 kg/m3, a viscosity ([1]; 293.15 K, x2 = 0) of 2.226 ± 0.41 mPa·s and a mass density ([1]; 298.15 K, x2 = 0) of 781.26 ± 0.98 kg/m3. For the same compound, the viscosity ([1]; 298.15 K, x2 = 0) was 1.91 ± 0.35 mPa·s, the mass density ([1]; 303.15 K, x2 = 0) was 777.97 ± 1.1 kg/m3 and the viscosity ([1]; 303.15 K, x2 = 0) was 1.737 ± 0.32 mPa·s. For the same compound, the mass density ([1]; 308.15 K, x2 = 0) was 772.59 ± 1.1 kg/m3, the viscosity ([1]; 308.15 K, x2 = 0) was 1.524 ± 0.29 mPa·s and the mass density ([1]; 313.15 K, x2 = 0) was 768.32 ± 1.1 kg/m3. For the same compound, the viscosity ([1]; 313.15 K, x2 = 0) was 1.347 ± 0.26 mPa·s.

Work on `CC(C)CO` [2-methyl-1-propanol] yielded a mass density ([2]; 293.15 K) of 801.68 ± 0.98 kg/m3, a viscosity ([2]; 293.15 K) of 4.037 ± 0.71 mPa·s and a mass density ([2]; 298.15 K) of 797.8 ± 1 kg/m3. For the same compound, the viscosity ([2]; 298.15 K) was 3.33 ± 0.59 mPa·s, the mass density ([2]; 303.15 K) was 794.16 ± 1.1 kg/m3 and the viscosity ([2]; 303.15 K) was 2.875 ± 0.52 mPa·s. It also gave a mass density ([2]; 308.15 K) of 790.06 ± 1.1 kg/m3, a viscosity ([2]; 308.15 K) of 2.421 ± 0.44 mPa·s and a mass density ([2]; 313.15 K) of 786.7 ± 1.1 kg/m3. It also gave a viscosity ([2]; 313.15 K) of 1.967 ± 0.36 mPa·s.

`CCC(C)=O` [butanone] gave a mass density ([2]; 293.15 K) of 804.92 ± 1.1 kg/m3, a mass density ([2]; 298.15 K) of 799.7 ± 1.1 kg/m3 and a viscosity ([2]; 298.15 K) of 0.2828 ± 0.074 mPa·s. It also gave a mass density ([2]; 303.15 K) of 794.81 ± 1.1 kg/m3, a viscosity ([2]; 303.15 K) of 0.2666 ± 0.071 mPa·s and a mass density ([2]; 308.15 K) of 789.78 ± 1.2 kg/m3. For the same compound, the viscosity ([2]; 308.15 K) was 0.2601 ± 0.07 mPa·s, the mass density ([2]; 313.15 K) was 784.32 ± 1.2 kg/m3 and the viscosity ([2]; 313.15 K) was 0.2545 ± 0.069 mPa·s.

Compound `CCC(C)O` (centres undefined) [butan-2-ol] + CCC(C)=O has a mass density ([1]; 293.15 K, x2 = 0) of 806.48 ± 1 kg/m3, a viscosity ([1]; 293.15 K, x2 = 0) of 3.632 ± 0.64 mPa·s and a mass density ([1]; 298.15 K, x2 = 0) of 802.35 ± 1 kg/m3. It also gave a viscosity ([1]; 298.15 K, x2 = 0) of 2.998 ± 0.54 mPa·s, a mass density ([1]; 303.15 K, x2 = 0) of 798.96 ± 1.1 kg/m3 and a viscosity ([1]; 303.15 K, x2 = 0) of 2.498 ± 0.45 mPa·s. It also gave a mass density ([1]; 308.15 K, x2 = 0) of 794.18 ± 1.1 kg/m3, a viscosity ([1]; 308.15 K, x2 = 0) of 2.054 ± 0.38 mPa·s and a mass density ([1]; 313.15 K, x2 = 0) of 790.07 ± 1.1 kg/m3. For the same compound, the viscosity ([1]; 313.15 K, x2 = 0) was 1.799 ± 0.33 mPa·s.

In the case of `CC(C)O` [propan-2-ol], the mass density ([2]; 293.15 K) is reported as 785.45 ± 0.99 kg/m3, the viscosity ([2]; 293.15 K) is reported as 2.226 ± 0.41 mPa·s and the mass density ([2]; 298.15 K) is reported as 781.26 ± 0.98 kg/m3. The viscosity ([2]; 298.15 K) was 1.91 ± 0.35 mPa·s, the mass density ([2]; 303.15 K) was 777.97 ± 1.1 kg/m3 and the viscosity ([2]; 303.15 K) was 1.737 ± 0.32 mPa·s. For the same compound, the mass density ([2]; 308.15 K) was 772.59 ± 1.1 kg/m3, the viscosity ([2]; 308.15 K) was 1.524 ± 0.29 mPa·s and the mass density ([2]; 313.15 K) was 768.32 ± 1.1 kg/m3. The viscosity ([2]; 313.15 K) was 1.347 ± 0.26 mPa·s.

For `CCC(C)(C)O` [2-methylbutan-2-ol], the mass density ([2]; 293.15 K) was 809.61 ± 1.1 kg/m3, the viscosity ([2]; 293.15 K) was 5.108 ± 0.88 mPa·s and the mass density ([2]; 298.15 K) was 805.01 ± 1.1 kg/m3. It also gave a viscosity ([2]; 298.15 K) of 4.474 ± 0.78 mPa·s, a mass density ([2]; 303.15 K) of 800.41 ± 1.1 kg/m3 and a viscosity ([2]; 303.15 K) of 3.909 ± 0.69 mPa·s. The mass density ([2]; 308.15 K) was 795.81 ± 1.1 kg/m3, the viscosity ([2]; 308.15 K) was 3.387 ± 0.6 mPa·s and the mass density ([2]; 313.15 K) was 791.21 ± 1.2 kg/m3. For the same compound, the viscosity ([2]; 313.15 K) was 2.909 ± 0.52 mPa·s.

`CCC(C)=O` [butanone] + CCC(C)(C)O showed a mass density ([1]; 293.15 K, x1 = 1) of 804.92 ± 1.1 kg/m3, a viscosity ([1]; 293.15 K, x1 = 1) of 0.3956 ± 0.093 mPa·s and a mass density ([1]; 298.15 K, x1 = 1) of 799.7 ± 1.1 kg/m3. For the same compound, the viscosity ([1]; 298.15 K, x1 = 1) was 0.2828 ± 0.074 mPa·s, the mass density ([1]; 303.15 K, x1 = 1) was 794.81 ± 1.1 kg/m3 and the viscosity ([1]; 303.15 K, x1 = 1) was 0.2666 ± 0.071 mPa·s. It also gave a mass density ([1]; 308.15 K, x1 = 1) of 789.78 ± 1.2 kg/m3, a viscosity ([1]; 308.15 K, x1 = 1) of 0.2601 ± 0.07 mPa·s and a mass density ([1]; 313.15 K, x1 = 1) of 784.32 ± 1.2 kg/m3. The viscosity ([1]; 313.15 K, x1 = 1) was 0.2545 ± 0.069 mPa·s.

In the case of `CCC(C)O` (centres undefined) [butan-2-ol], the mass density ([2]; 293.15 K) is reported as 806.48 ± 1 kg/m3, the viscosity ([2]; 293.15 K) is reported as 3.632 ± 0.64 mPa·s and the mass density ([2]; 298.15 K) is reported as 802.35 ± 1 kg/m3. The viscosity ([2]; 298.15 K) was 2.998 ± 0.54 mPa·s, the mass density ([2]; 303.15 K) was 798.96 ± 1.1 kg/m3 and the viscosity ([2]; 303.15 K) was 2.498 ± 0.45 mPa·s. It also gave a mass density ([2]; 308.15 K) of 794.18 ± 1.1 kg/m3, a viscosity ([2]; 308.15 K) of 2.054 ± 0.38 mPa·s and a mass density ([2]; 313.15 K) of 790.07 ± 1.1 kg/m3. For the same compound, the viscosity ([2]; 313.15 K) was 1.799 ± 0.33 mPa·s.
